Literature values, collected in patent US11896043B2, “Intestinal immune-enhancing agent, food product, and medicament” (DAICEL CORPORATION, priority 2017, dated 2024).

Test system: IgA

Q: With `OC[C@H]1O[C@@H](O[C@H]2[C@H](O)[C@@H](O)[C@@H](O[C@]3(CO)O[C@H](CO)[C@@H](O)[C@@H]3O)O[C@@H]2CO)[C@H](O)[C@@H](O)[C@H]1O` [lactosucrose, 4^G-β-D-galactosylsucrose] as the molecule, how does the “amounts of IgA in the feces and cecal contents” value (2% and 5% LS added feed for 4 weeks) read?
A: significantly increased

Q: And the “amount of IgA in the feces” value (after two weeks)?
A: decreased greatly

Q: And the “amount of IgA in the feces relative to the control group” value (one week after ingestion)?
A: about twice
